Test results as given in ChEMBL document CHEMBL1201862, “PubChem BioAssay data set” (2004).
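Test compounds were applied to cells in 96-well plates for 48 hours at 5 doses. Abbreviation: GI50, concentration required for 50% inhibition of growth.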 Active and inactive are the calls of the source. Cut-off read from the data, not from the text of the source: active = GI50 up to about 1.1 µM and inactive = higher.

Key:
Test in all cases: DTP human tumour cell line panel, 48 h
786-0 = tested on: 786-0
OVCAR-4 = tested on: OVCAR-4
ACHN = tested on: ACHN
SNB-75 = tested on: SNB-75
NCI-H522 = tested on: NCI-H522
HT-29 = tested on: HT-29
SN12C = tested on: SN12C
SF-268 = tested on: SF-268
NCI/ADR-RES = tested on: NCI/ADR-RES
Malme-3M = tested on: Malme-3M
CAKI-1 = tested on: CAKI-1
OVCAR-8 = tested on: OVCAR-8
DU-145 = tested on: DU-145
LOX IMVI = tested on: LOX IMVI
SK-MEL-5 = tested on: SK-MEL-5
RXF 393 = tested on: RXF 393
A498 = tested on: A498
T47D = tested on: T47D
SK-OV-3 = tested on: SK-OV-3
HCC 2998 = tested on: HCC 2998

Measured: GI50

Cc1ccc(S(=O)(=O)Nc2ccccc2C(=O)c2ccc(C)c(C)c2)cc1
inactive: 786-0 > 100 µM | OVCAR-4 > 100 µM | ACHN 55.2 µM | SNB-75 > 100 µM | NCI-H522 39.9 µM | HT-29 > 100 µM | SN12C > 100 µM | SF-268 > 100 µM | NCI/ADR-RES > 100 µM | Malme-3M 59 µM | CAKI-1 > 100 µM | OVCAR-8 > 100 µM | DU-145 > 100 µM | LOX IMVI > 100 µM | SK-MEL-5 35 µM | RXF 393 > 100 µM | A498 94.6 µM | T47D 71.1 µM | SK-OV-3 > 100 µM

Cc1ccc(C)c(NC(=O)C(Cc2c[nH]c3ccccc23)NC(=O)OCc2ccccc2)c1 (stereo unspecified)
inactive: 786-0 15.5 µM | OVCAR-4 5.12 µM | ACHN 22.9 µM | SNB-75 11.3 µM | NCI-H522 16.1 µM | HT-29 12.4 µM | SN12C 24.7 µM | SF-268 26.4 µM | NCI/ADR-RES 11.1 µM | Malme-3M 25.4 µM | CAKI-1 16.4 µM | OVCAR-8 17.5 µM | DU-145 13.5 µM | LOX IMVI 37.3 µM | SK-MEL-5 10.8 µM | RXF 393 6.34 µM | A498 35.6 µM | T47D 9.18 µM | SK-OV-3 20.1 µM

COc1ccc(C2SC(=N)Nc3c2c(C)nn3C(=O)c2ccncc2)cc1 (stereo unspecified)
inactive: 786-0 > 100 µM | OVCAR-4 43.3 µM | ACHN > 100 µM | SNB-75 > 100 µM | HT-29 > 100 µM | SN12C > 100 µM | SF-268 > 100 µM | NCI/ADR-RES > 100 µM | Malme-3M > 100 µM | OVCAR-8 > 100 µM | DU-145 > 100 µM | LOX IMVI > 100 µM | SK-MEL-5 45.7 µM | RXF 393 > 100 µM | A498 98.4 µM | T47D 45.5 µM | SK-OV-3 > 100 µM

Oc1ccc(O)c(CNc2ccc(C(O)C(F)(F)F)cc2)c1 (stereo unspecified)
inactive: 786-0 13 µM | OVCAR-4 16.3 µM | ACHN 13.7 µM | SNB-75 12.2 µM | NCI-H522 1.66 µM | HT-29 32.4 µM | SN12C 18.1 µM | SF-268 22.2 µM | NCI/ADR-RES 8.43 µM | Malme-3M 15.6 µM | CAKI-1 16 µM | OVCAR-8 10.4 µM | DU-145 14.5 µM | LOX IMVI 14.2 µM | SK-MEL-5 29.3 µM | RXF 393 12.5 µM | A498 41.4 µM | T47D 18.1 µM | SK-OV-3 44.3 µM

OC1CCN(c2c3ccccc3nc3ccccc23)CC1
inactive: 786-0 4.99 µM | OVCAR-4 17.6 µM | ACHN 8.71 µM | SNB-75 23.8 µM | NCI-H522 2.92 µM | HT-29 2.28 µM | SN12C 32.4 µM | SF-268 17.2 µM | NCI/ADR-RES > 100 µM | Malme-3M 9.82 µM | CAKI-1 20.1 µM | OVCAR-8 24.8 µM | DU-145 5.22 µM | LOX IMVI 4.52 µM | SK-MEL-5 19.7 µM | RXF 393 4.55 µM | A498 19 µM | T47D 1.51 µM | SK-OV-3 39.7 µM

CC(=O)Nc1ccc(C(=O)NN2C(=O)CSC2c2ccc([N+](=O)[O-])cc2)cc1 (stereo unspecified)
inactive: 786-0 > 100 µM | OVCAR-4 > 100 µM | ACHN > 100 µM | SNB-75 > 100 µM | HT-29 > 100 µM | SN12C > 100 µM | SF-268 79.8 µM | NCI/ADR-RES > 100 µM | OVCAR-8 > 100 µM | DU-145 > 100 µM | HCC 2998 > 100 µM | SK-MEL-5 > 100 µM | RXF 393 > 100 µM | A498 > 100 µM | T47D > 100 µM | SK-OV-3 > 100 µM

O=c1c2cc(-c3ccccc3)cnc2sn1-c1ccc([N+](=O)[O-])cc1
inactive: 786-0 34.5 µM | OVCAR-4 39 µM | ACHN 24.9 µM | SNB-75 25.1 µM | NCI-H522 22.1 µM | HT-29 68.2 µM | SN12C 60 µM | SF-268 48.2 µM | NCI/ADR-RES 32.7 µM | Malme-3M 40.6 µM | CAKI-1 39.6 µM | OVCAR-8 33.2 µM | DU-145 61.4 µM | HCC 2998 > 100 µM | RXF 393 29.9 µM | A498 23.7 µM | T47D 44.1 µM | SK-OV-3 26.9 µM

OC1CCC(C2C3CCCCC3C3CCCCC3C2C2CCC(O)CC2)CC1 (stereo unspecified)
inactive: 786-0 4.16 µM | OVCAR-4 4.04 µM | ACHN 2.98 µM | SNB-75 5.38 µM | NCI-H522 2.34 µM | HT-29 2.05 µM | SN12C 5.13 µM | SF-268 2.99 µM | NCI/ADR-RES 4.58 µM | Malme-3M 15.8 µM | CAKI-1 3.62 µM | OVCAR-8 3.72 µM | DU-145 5.37 µM | LOX IMVI 2.31 µM | SK-MEL-5 10.4 µM | RXF 393 2.9 µM | A498 15.8 µM | T47D 5.26 µM | SK-OV-3 5.19 µM
